Test results published in publication PMC9146163, “Novel Au Carbene Complexes as Promising Multi-Target Agents in Breast Cancer Treatment” (Pharmaceuticals, 2022).
Read-outs that look alike come from different tables or passages of the source.

What was measured:
[1] = target: T1, Labeled Rabbit Muscle Actin (Oryctolagus cuniculus, UniProt P68135); test: In vitro actin polymerization assay; assay type: biochemical; conditions: 5 µM; for actin polymerization curve, final value: end of 1 h kinetic read, control about 37.000 RFU
T1 construct: purchased Abcam (Actin Polymerization/Depolymerization Assay Kit)
Method: (§1) The ability of the tested compounds to interfere with the actin polymerization and depolymerization reaction was measured using an Actin Polymerization/Depolymerization Assay Kit purchased from Abcam, following the manufacturer’s instructions. […] For the polymerization assay, reconstituted actin was mixed with supplemented Buffer G and samples in a white 96-well plate and then the polymerization reaction was induced with the addition of the Buffer P supplemented with 10 mM ATP. The solution was mixed and the data acquisition started. For the Actin Depolymerization Assay, supplemented Buffers P and G were mixed and incubated in a white 96-well plate at room temperature for one hour to polymerize the actin, protected from light. Then samples were added and the data acquisition started. Latrunculin A and Cytochalasin B were used as control molecules at a concentration of 5 μM. For both the assays, the assembly of actin filaments was determined by measuring the fluorescence (Ex/Em: 365/410 nm) in kinetic mode for 1 h at room temperature using a microplate reader.

[2] = target: T1, Labeled Rabbit Muscle Actin; test: In vitro actin depolymerization assay; assay type: biochemical; conditions: for effect on already polymerized actin (in words): 5 µM
Method: as §1

[3] = LogP determination (1-octanol/water, UV/vis); assay type: physicochemical; conditions: log[complex]oct/[complex]H2O, 55 μM, UV-Vis
Method: The logarithm of the partition coefficient (LogP) was evaluated by making a slight modification to the procedure reported in ref. [79]. Equal volumes of 1-octanol and water (distilled after milli-Q purification) were stirred for 20 h at room temperature. Then, they were separated to give 1-octanol-saturated water and water-saturated 1-octanol. Six (10, 20, 40, 50, 60 and 100 μM) standard concentrations of the compounds were prepared from the water-saturated 1-octanol. Analysis using UV/vis spectroscopy was used to obtain a calibration curve of absorbance vs. concentration. For each complex, a solution was prepared in the water-saturated 1-octanol (55 μM) and an equal volume of 1-octanol-saturated water was added. The solutions (biphasic) were mixed for 15 min and then centrifuged for 1h at 6500 rpm to allow separation.
Concentration in water-saturated 1-octanol was determined by UV-Vis spectroscopy. Reported LogP is defined as log[complex]oct/[complex]H2O.

MCF-7 cells = test: MTT assay, MCF-7; assay type: cell-based, human; conditions: read-out: IC50 MCF-7
Method: (§2) The five employed cell lines were purchased from American Type Culture Collection (ATCC, Manassas, VA, USA) and maintained as already reported. MCF-7, MDA-MB-231, MCF-10A and Hek-293 were cultured, as indicated by Iacopetta et al.. SkBr3 cells were maintained in DMEM high glucose, supplemented with 10% FBS and 100 μg/mL penicillin/streptomycin.
(§3) MTT assays [Sigma Aldrich (St.Louis, MO, USA)] were used in order to determine the in vitro anticancer activities of all the target compounds, as already reported.The compounds were tested at different concentrations (0.1-1-10-20-40 µM) for 72 h. Results are represented as percent (%) of basal and the IC50 values were calculated using GraphPad Prism 9 (GraphPad Software, La Jolla, CA, USA).

SkBr3 cells = test: MTT assay, SkBr3; assay type: cell-based, human; conditions: read-out: IC50 SkBr3
Method: as §2, §3

MCF-10A cells = test: MTT assay, normal MCF-10A; assay type: cell-based, human; conditions: 72 h, read-out: IC50 MCF-10A
Method: (§4) The five employed cell lines were purchased from American Type Culture Collection (ATCC, Manassas, VA, USA) and maintained as already reported. […] SkBr3 cells were maintained in DMEM high glucose, supplemented with 10% FBS and 100 μg/mL penicillin/streptomycin.
[…] Results are represented as percent (%) of basal and the IC50 values were calculated using GraphPad Prism 9 (GraphPad Software, La Jolla, CA, USA).

Hek-293 cells [4] = test: MTT assay, normal Hek-293; assay type: cell-based, human; conditions: read-out: IC50 Hek-293
Method: as §4, §3

vimentin in MCF-7 cells = test: Vimentin expression (immunofluorescence), MCF-7; assay type: cell-based, human; conditions: fluorescence quantification; IC50 value, 24 h
Method: (§5) The MitoTracker Deep Red FM probe (MitoTracker Mitochondrion-Selective Probes, Invitrogen European Headquarters, Paisley, PA4 9RF, UK) was used for mitochondrial staining, as previously described. For immunofluorescence analysis, the cells were seeded and further processed, as reported by Iacopetta et al.. The primary antibodies used were: rabbit anti-β-Actin and vimentin (Santa Cruz Biotechnology, Dallas, TX, USA), mouse anti cytochrome c and NF-κB p65 (Abcam, Cambridge, UK), diluted 1:100 in bovine serum albumin (BSA) 2% overnight at 4 °C. The secondary antibodies were: Alexa Fluor® 488 conjugate goat-anti-rabbit and Alexa Fluor® 568 conjugate goat-anti-mouse (Thermo Fisher Scientific, MA, USA), diluted 1:500 and incubated for 2h at 37 °C. DAPI 0.2 μg/mL (Sigma Aldrich, Milan, Italy) was used for nuclei staining. […] All the images were acquired and processed using the LAS-X software.
Protein lysates underwent the SDS-PAGE process, as already defined. Then lysates were resolved on a 7.5% SDS polyacrylamide gel, transferred to a nitrocellulose membrane, and probed with antibodies against vimentin and GAPDH (Santa Cruz Biotechnology, Dallas, TX, USA). […] The images are representative of three independent experiments.

MDA-MB-231 cells = test: MTT assay, MDA-MB-231; assay type: cell-based, human; conditions: read-out: IC50 MDA-MB-231
Method: as §2, §3

β-actin in MCF-10A cells = test: Actin immunofluorescence, MCF-10A; assay type: cell-based, human; conditions: 24 h; compounds at their IC50 value, LA 0.1 μM
Method: as §5
E: Figure S1. Actin immunofluorescence studies in MCF-10A cells […]
Figure S1. Actin immunofluorescence studies. M CF-10A cells were treat ed with compounds 1 and […]
treatment, the cells were methanol fixed, incubated with primary and secondary antibodies, stained with DAPI and observed and imaged under the inverted fluorescence microscope at 20x […]
A: nuclear stain with DAPI (λex/λem = 350/460 nm); Panels B: β-actin ([…]); Panels C: show a merge. R epresentative fields are shown.

Hek-293 cells [5] = test: MTT assay, normal Hek-293; assay type: cell-based, human; conditions: up to the concentration of 200 μM
[6] = system: β-actin in MDA-MB-231 cells; test: Actin immunofluorescence, MDA-MB-231; assay type: cell-based, human; conditions: 24 h; compound 1 at its IC50 value, LA 0.1 µM
Method: as §5

β-actin in MCF-7 cells = test: Actin immunofluorescence, MCF-7; assay type: cell-based, human; conditions: 24 h; compound 6 at its IC50 value, LA 0.1 µM
Method: as §5

[7] = MTT, 72 h, normal cells, mean ± SD

Structure (SMILES) | LogP [3] | IC50 (MCF-7 cells; MTT, 72 h, mean ± SD) | IC50 (SkBr3 cells; MTT, 72 h, mean ± SD) | IC50 (MCF-10A cells; MTT, normal cells, mean ± SD) | IC50 (Hek-293 cells [4]; [7]) | IC50 (MDA-MB-231 cells; MTT, 72 h, mean ± SD) | also measured
C=C1[C@@H](C)[C@H]2[C@H](Cc3ccccc3)NC(=O)[C@]23OC(=O)/C=C/[C@H](O)CCC[C@@H](C)C/C=C/[C@H]3[C@@H]1O [cytochalasin B] |  |  |  |  |  |  | effect on actin polymerization (in words) [1]: impeded the actin polymerization; actin polymerization curve, final value [1]: ended almost at the same RFU value of the beginning; effect on already polymerized actin (in words) [2]: did not produce a significant decrease
CC(=O)[O-].Cn1ccn(CC([O-])c2ccccc2)[c]1=[Au+]=[c]1n(C)ccn1CC([O-])c1ccccc1.[Na+].[Na+] (centres unmarked) [Compound 2] | 0.047 | 30.6 ± 0.7 µM | 38.4 ± 0.4 µM | 39.6 ± 0.5 µM | > 200 µM | 22.6 ± 1.1 µM | reduction of vimentin expression with respect to the control, MCF-7 (vimentin in MCF-7 cells): two times lower
N.N.[Cl][Pt][Cl] [Cisplatin, reference compound] |  | 35.8 ± 0.7 µM | 7.4 ± 0.9 µM | 81.3 ± 0.6 µM | 16.3 ± 0.9 µM | 28.7 ± 0.4 µM | 
CC(=O)[O-].COC(Cn1ccn(C)[c]1=[Au+]=[c]1n(C)ccn1CC(OC)c1ccccc1)c1ccccc1 (centres unmarked) [Compound 4, Bis [(N-methyl, N’(2-methoxy-2-phenyl-ethyl)imidazole-2-ylidine]gold(I)] acetate] |  | 9.4 ± 0.6 µM | 2.6 ± 0.7 µM | 5.2 ± 0.9 µM | 7.6 ± 1 µM | 3 ± 0.7 µM | 
COC(Cn1ccn(C)[c]1=[Au+]=[c]1n(C)ccn1CC(OC)c1ccccc1)c1ccccc1.[Cl-] (centres unmarked) [Compound 3] | 0.62 | 3.3 ± 1.4 µM | 10.9 ± 0.7 µM | 13.3 ± 1 µM | 39 ± 0.9 µM | 2.2 ± 1.1 µM | 
C/C1=C/C(=O)O[C@@H]2C[C@@H](CC[C@H](C)/C=C\C=C\CC1)O[C@@](O)([C@@H]1CSC(=O)N1)C2 [Latrunculin A, reference compound] |  |  |  |  |  |  | actin organization in MCF-10A cells (β-actin in MCF-10A cells): aberrant actin arrangement; cytotoxicity against the normal Hek-293 cells (in words) (Hek-293 cells [5]): drastically reduced; IC50 (MCF-7 cells; Homo sapiens, MCF7, 72 h): 0.14 µM; IC50 (SkBr3 cells; Homo sapiens, SK-BR-3, 72 h): 0.7 ± 1.2 µM; IC50 (MCF-10A cells; Homo sapiens, MCF-10A): 0.045 µM; actin organization in MDA-MB-231 cells [6]: complete disorganization of the actin system; IC50 (Hek-293 cells [4]; Homo sapiens, HEK293, 72 h): 0.093 µM; actin polymerization curve, value 14 min after the reaction started [1]: about 12.000 RFU; effect on actin polymerization (in words) [1]: impeded the actin polymerization; actin polymerization curve, final value [1]: about 10.000 RFU; actin organization in MCF-7 cells (β-actin in MCF-7 cells): complete disorganization of the actin system; effect on already polymerized actin (in words) [2]: triggered the actin depolymerization; actin depolymerization curve, end value ([2]; 5 µM added to actin polymerized for one hour, followed for another hour): 14.000 RFU; actin depolymerization curve, value after the net decrease at about seven minutes ([2]; 5 µM added to actin polymerized for one hour, initial value around 28.000 RFU): about 16.800 RFU; IC50 (MDA-MB-231 cells; Homo sapiens, MDA-MB-231, 72 h): 0.024 µM
CC(=O)[O-].Cn1ccn(CC(O)c2ccccc2)[c]1=[Au+]=[c]1n(C)ccn1CC(O)c1ccccc1 (centres unmarked) [Compound 5] | 0.12 | 21.9 ± 0.5 µM | 58.9 ± 1.2 µM | 27.8 ± 0.7 µM | > 200 µM | 58.5 ± 1.2 µM | 
